Literature values as cited in patent publication US20070250270A1, “Cellular predictive models for toxicities” (Cytokinetics, Inc., priority 2006, published 2007).
Starred links: 1 amine or outer side, 2 acyl side, 3 side chain; linkers in the order of their positions; H or OH if unused. Positions of bridges follow the written chain, without caps; N, C: chain ends. Non-standard residues stand in square brackets, D forms with d. Residues, ends and D or L forms follow the SMILES beside them. Trp(2-yl) = O=C([C@H](Cc1c([*:3])[nH]c2ccccc12)N[*:1])[*:2]; Leu(4R-OH,5-OH) = C[C@](O)(CO)C[C@H](N)C(=O)O; cisHyp = O=C(O)[C@@H]1C[C@H](O)CN1

Columns and labels:
[1] = system: filamentous F actin
[2] = system: bile flow; conditions: rats

| Structure (SMILES) | effect on filamentous F actin around canaliculi and tight junctions [1] | effect on bile flow, resulting in cholestatic injury [2] |
| --- | --- | --- |
| C[C@@H]1NC(=O)[C@H](C[C@@](C)(O)CO)NC(=O)[C@@H]2Cc3c([nH]c4ccccc34)SC[C@H](NC(=O)[C@@H]([C@H](C)O)NC1=O)C(=O)N1C[C@@H](O)C[C@H]1C(=O)N[C@@H](C)C(=O)N2 [phalloidin] (cyclo(A[dT]C[cisHyp]A[Trp(2-yl)][Leu(4R-OH,5-OH)]); thioether 3-6) | increase in filamentous F actin around canaliculi and tight junctions | – |
| C=C1[C@@H](C)[C@H]2[C@H](Cc3ccccc3)NC(=O)[C@]23OC(=O)/C=C/[C@H](O)CCC[C@@H](C)C/C=C/[C@H]3[C@@H]1O [cytochalasin B] | – | prompt arrest of bile flow |
